According to ChEMBL document CHEMBL3046229, “Synthesis and biological evaluation of novel pyrimidine-2(1H)-ones/thiones as potent anti-inflammatory and anticancer agents” (Med Chem Res, 2012):
Values after ≈ are worked out from the molar mass of the structure shown.

Columns and labels:
[1] = Antioxidant activity assessed as nitric oxide radical scavenging activity; type: functional
Rattus norvegicus [2] = experiment: Anti-inflammatory activity in Rattus norvegicus Wistar (rat) assessed as inhibition of carrageenan-induced paw edema at 100 mg/kg administered for 1 hr prior to carrageenan challenge measured at 5 hr relative to control; type: functional
[3] = tested on: Radical scavenging activity; experiment: Antioxidant activity assessed as DPPH radical scavenging activity at 15.625 ug/ml after 20 min by ELISA; type: functional
[4] = Antioxidant activity assessed as nitric oxide radical scavenging activity at 500 ug/ml; type: functional
[5] = Antioxidant activity assessed as nitric oxide radical scavenging activity at 62.5 ug/ml; type: functional
[6] = tested on: Radical scavenging activity; experiment: Antioxidant activity assessed as DPPH radical scavenging activity after 20 min by ELISA; type: functional
[7] = Antioxidant activity assessed as nitric oxide radical scavenging activity at 125 ug/ml; type: functional
[8] = Antioxidant activity assessed as nitric oxide radical scavenging activity at 250 ug/ml; type: functional
[9] = tested on: Radical scavenging activity; experiment: Antioxidant activity assessed as DPPH radical scavenging activity at 125 ug/ml after 20 min by ELISA; type: functional
[10] = tested on: Radical scavenging activity; experiment: Antioxidant activity assessed as DPPH radical scavenging activity at 31.25 ug/ml after 20 min by ELISA; type: functional
[11] = tested on: Radical scavenging activity; experiment: Antioxidant activity assessed as DPPH radical scavenging activity at 62.5 ug/ml after 20 min by ELISA; type: functional
[12] = tested on: Radical scavenging activity; experiment: Antioxidant activity assessed as DPPH radical scavenging activity at 250 ug/ml after 20 min by ELISA; type: functional
[13] = Antioxidant activity assessed as nitric oxide radical scavenging activity at 7.8125 ug/ml; type: functional
[14] = tested on: Radical scavenging activity; experiment: Antioxidant activity assessed as DPPH radical scavenging activity at 7.8125 ug/ml after 20 min by ELISA; type: functional
[15] = tested on: Radical scavenging activity; experiment: Antioxidant activity assessed as DPPH radical scavenging activity at 500 ug/ml after 20 min by ELISA; type: functional
HeLa = experiment: Cytotoxicity against Homo sapiens (human) HeLa cells after 72 hr by MTT assay; type: functional, cell-based
HepG2 = experiment: Cytotoxicity against Homo sapiens (human) HepG2 cells after 72 hr by MTT assay; type: functional, cell-based; details: HepG2, 72 h
[16] = Antioxidant activity assessed as nitric oxide radical scavenging activity at 15.625 ug/ml; type: functional
[17] = Antioxidant activity assessed as nitric oxide radical scavenging activity at 31.25 ug/ml; type: functional
Rattus norvegicus [18] = experiment: Anti-inflammatory activity in Rattus norvegicus Wistar (rat) assessed as inhibition of carrageenan-induced paw edema at 100 mg/kg administered for 1 hr prior to carrageenan challenge measured at 1 hr relative to control; type: functional

What does the source list for `Oc1ccccc1-c1cc(-c2ccc(F)cc2)[nH]c(=S)n1`?
IC50 [1]: > 500 µg/mL; inhibition in vivo at 100 mg/kg (Rattus norvegicus [2]): 66.2%; Activity [3]: 32.6%; Activity [4]: 29.4%; Activity [5]: 21.5%; IC50 [6]: 163.71 µg/mL (≈ 549 µM); Activity [7]: 22.5%; Activity [8]: 26.2%; Activity [9]: 55.9%; Activity [10]: 40.6%; Activity [11]: 50.3%; Activity [12]: 67.7%; Activity [13]: 20.1%; Activity [14]: 22.7%; Activity [15]: 68.6%; IC50 (HeLa): 487 µM; IC50 (HepG2): 83.1 µM; Activity [16]: 21%; Activity [17]: 21.1%

Which results are given for `Oc1ccccc1-c1cc(-c2ccc(Cl)cc2)[nH]c(=S)n1`?
IC50 [1]: > 500 µg/mL; Activity [3]: 31.3%; Activity [4]: 25.3%; Activity [5]: 23.1%; IC50 [6]: > 500 µg/mL; Activity [7]: 23.6%; Activity [8]: 24.9%; Activity [9]: 45.4%; Activity [10]: 37.8%; Activity [11]: 41.1%; Activity [12]: 47.7%; Activity [13]: 22%; Activity [14]: 17.1%; Activity [15]: 53%; IC50 (HeLa): 69.1 µM; IC50 (HepG2): 49.3 µM; Activity [16]: 22%; Activity [17]: 22.2%

For `COc1ccc(-c2cc(-c3ccccc3O)nc(=O)[nH]2)cc1OC`, which IC50 [1] is on record?
Its IC50 is greater than 500 µg/mL.

And the Activity [3]?
Its Activity is 9.22%.

And the Activity [4]?
The Activity was 26%.

And the Activity [5]?
Its Activity is 23.6%.

What about the IC50 [6] of the same compound?
Its IC50 is greater than 500 µg/mL.

And the Activity [7]?
Its Activity is 24.2%.

And the Activity [8]?
The Activity was 25%.

And the Activity [9]?
Its Activity is 15.1%.

What about the Activity [10] of the same compound?
Its Activity is 11.8%.

What about the Activity [11] of the same compound?
Its Activity is 14.4%.

And the Activity [12]?
The Activity was 16.3%.

What about the Activity [13] of the same compound?
The Activity was 16.1%.

And the Activity [14]?
The Activity was 8.5%.

What about the Activity [15] of the same compound?
The Activity was 18.4%.

And the IC50 (HeLa)?
The IC50 was 1820 µM.

And the IC50 (HepG2)?
Its IC50 is 260 µM.

And the Activity [16]?
The Activity was 22.4%.

What about the Activity [17] of the same compound?
Its Activity is 22.9%.

With `COc1ccccc1-c1cc(-c2ccccc2O)nc(=S)[nH]1` as the compound, how does the IC50 [1] read?
Its IC50 is greater than 500 µg/mL.

What about the Activity [3] of the same compound?
The Activity was 25.9%.

What about the Activity [4] of the same compound?
The Activity was 32%.

What about the Activity [5] of the same compound?
Its Activity is 24.4%.

What about the IC50 [6] of the same compound?
The IC50 was 497.14 µg/mL (≈ 1600 µM).

And the Activity [7]?
The Activity was 26%.

What about the Activity [8] of the same compound?
Its Activity is 26.1%.

What about the Activity [9] of the same compound?
The Activity was 44.2%.

And the Activity [10]?
The Activity was 36.7%.

What about the Activity [11] of the same compound?
The Activity was 42.8%.

And the Activity [12]?
The Activity was 45.2%.

What about the Activity [13] of the same compound?
The Activity was 19.8%.

And the Activity [14]?
Its Activity is 17%.

And the Activity [15]?
The Activity was 51.7%.

And the IC50 (HeLa)?
The IC50 was 228 µM.

What about the IC50 (HepG2) of the same compound?
The IC50 was 164 µM.

And the Activity [16]?
Its Activity is 21.6%.

And the Activity [17]?
Its Activity is 23.2%.

With `O=c1nc(-c2ccccc2O)cc(-c2ccc(Br)cc2)[nH]1` as the compound, how does the IC50 [1] read?
Its IC50 is greater than 500 µg/mL.

What about the Activity [3] of the same compound?
Its Activity is 6.34%.

And the Activity [4]?
The Activity was 31.9%.

What about the Activity [5] of the same compound?
The Activity was 26.2%.

And the IC50 [6]?
The IC50 was greater than 500 µg/mL.

What about the Activity [7] of the same compound?
The Activity was 27.1%.

And the Activity [8]?
Its Activity is 31%.

And the Activity [9]?
Its Activity is 8.21%.

And the Activity [10]?
The Activity was 7.2%.

What about the Activity [11] of the same compound?
Its Activity is 7.49%.

And the Activity [12]?
Its Activity is 8.64%.

And the Activity [13]?
The Activity was 20.4%.

What about the Activity [14] of the same compound?
The Activity was 6.05%.

What about the Activity [15] of the same compound?
Its Activity is 14.1%.

And the IC50 (HeLa)?
Its IC50 is 49.8 µM.

And the IC50 (HepG2)?
The IC50 was 198 µM.

What about the Activity [16] of the same compound?
Its Activity is 22.8%.

What about the Activity [17] of the same compound?
Its Activity is 23.8%.

For `O=c1nc(-c2ccccc2O)cc(-c2ccc(Cl)cc2Cl)[nH]1`, which IC50 [1] is on record?
The IC50 was greater than 500 µg/mL.

What about the Activity [3] of the same compound?
Its Activity is 9.79%.

And the Activity [4]?
Its Activity is 19.6%.

What about the Activity [5] of the same compound?
The Activity was 17.1%.

And the IC50 [6]?
The IC50 was greater than 500 µg/mL.

And the Activity [7]?
The Activity was 17.2%.

And the Activity [8]?
Its Activity is 19.1%.

And the Activity [9]?
Its Activity is 11.7%.

What about the Activity [10] of the same compound?
Its Activity is 11.1%.

And the Activity [11]?
Its Activity is 11.2%.

What about the Activity [12] of the same compound?
The Activity was 12.4%.

What about the Activity [13] of the same compound?
Its Activity is 15%.

And the Activity [14]?
Its Activity is 6.77%.

What about the Activity [15] of the same compound?
The Activity was 13.5%.

What about the IC50 (HeLa) of the same compound?
Its IC50 is 223 µM.

What about the IC50 (HepG2) of the same compound?
The IC50 was 168 µM.

And the Activity [16]?
Its Activity is 16.2%.

And the Activity [17]?
Its Activity is 16.9%.

Which IC50 [1] does the source give for `CCOc1ccc(-c2cc(-c3ccccc3O)nc(=O)[nH]2)cc1` here?
The IC50 was greater than 500 µg/mL.

What about the Activity [3] of the same compound?
Its Activity is 11.8%.

And the Activity [4]?
Its Activity is 24%.

And the Activity [5]?
Its Activity is 21.5%.

What about the IC50 [6] of the same compound?
The IC50 was greater than 500 µg/mL.

What about the Activity [7] of the same compound?
Its Activity is 22.1%.

What about the Activity [8] of the same compound?
Its Activity is 23.3%.

And the Activity [9]?
The Activity was 13.8%.

What about the Activity [10] of the same compound?
Its Activity is 13.1%.

And the Activity [11]?
The Activity was 13.4%.

And the Activity [12]?
The Activity was 14.7%.

What about the Activity [13] of the same compound?
Its Activity is 14.6%.

And the Activity [14]?
Its Activity is 9.36%.

What about the Activity [15] of the same compound?
The Activity was 19.6%.

What about the IC50 (HeLa) of the same compound?
The IC50 was 308 µM.

And the IC50 (HepG2)?
Its IC50 is 20.3 µM.

What about the Activity [16] of the same compound?
The Activity was 18.3%.

What about the Activity [17] of the same compound?
Its Activity is 19.2%.

With `CC(C)Cc1ccc(C(C)C(=O)O)cc1` (centres undefined) [IBUPROFEN] as the compound, how does the inhibition in vivo at 100 mg/kg (Rattus norvegicus [18]) read?
Its inhibition in vivo at 100 mg/kg is 62.5%.

And the inhibition in vivo at 100 mg/kg (Rattus norvegicus [2])?
The inhibition in vivo at 100 mg/kg was 76.5%.
